Test results: PubChem BioAssay (NCI)
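Dose response: 5 concentrations. Exposure: 48 h. Format: 96-well plates. Endpoint: linear interpolation; highest concentration if not reached. Definition used: TGI = concentration required for complete inhibition of growth.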

What was measured:
Test in all cases: NCI anticancer screen, dose series, 48 h
[1] = tested on: DMS 273 small cell lung
[2] = tested on: LXFL 529 NSCLC
[3] = tested on: DLD-1 colon
[4] = tested on: RXF-631 renal
[5] = tested on: HOP-18 NSCLC
[6] = tested on: M19-MEL melanoma
[7] = tested on: KM20L2 colon
[8] = tested on: DMS 114 small cell lung
[9] = tested on: XF 498 CNS

In the case of `CC(C)(C)OC(=O)N[C@H]1CC(O)c2ccccc2N(CC(=O)O)C1=O` (stereo not given in full), the TGI [1] is reported as over 100 µM, the TGI [2] is reported as over 100 µM and the TGI [3] is reported as over 100 µM. For the same compound, the TGI [4] was over 100 µM, the TGI [5] was over 100 µM and the TGI [6] was over 100 µM. It also gave a TGI [7] of over 100 µM, a TGI [8] of over 100 µM and a TGI [9] of over 100 µM.
`Cc1[nH]c(=O)nc2c1C(NCCCN(C)C)c1cc(Cl)ccc1N2` (stereo not given) gave a TGI [1] of 25.3 µM, a TGI [2] of 30.6 µM and a TGI [3] of 35.3 µM. The TGI [6] was 12.9 µM, the TGI [7] was 24.4 µM and the TGI [8] was 28.2 µM. For the same compound, the TGI [9] was 30.8 µM.
Work on `O=C(CC(CC(=O)Oc1c(Br)cc(Br)cc1C(=O)O)C(=O)Oc1c(Br)cc(Br)cc1C(=O)O)Oc1c(Br)cc(Br)cc1C(=O)O` yielded a TGI [1] of over 100 µM, a TGI [2] of over 100 µM and a TGI [3] of over 100 µM. The TGI [6] was over 100 µM, the TGI [7] was over 100 µM and the TGI [8] was over 100 µM. It also gave a TGI [9] of 38.9 µM.
Compound `CC(=O)OC1CC2CCN3C(=O)c4cc5c(cc4[C@H](C1OC(C)=O)C23)OCO5` (stereo not given in full) has a TGI [1] of over 100 µM, a TGI [2] of over 100 µM and a TGI [3] of over 100 µM. It also gave a TGI [6] of over 100 µM and a TGI [7] of over 100 µM.
`CC1=NN(C(=O)c2ccccc2O)C(=O)/C1=C/c1cccc(O)c1` was tested, and the TGI [2] was over 100 µM, the TGI [3] was over 100 µM and the TGI [6] was over 100 µM. For the same compound, the TGI [7] was over 100 µM and the TGI [9] was over 100 µM.
`COC(=O)[C@H](Cc1ccccc1)NC(=O)/C(=C/C(C)C)NC(=O)[C@H](CCSC)NC=O` was tested, and the TGI [1] was over 100 µM, the TGI [2] was over 100 µM and the TGI [3] was over 100 µM. The TGI [5] was over 100 µM, the TGI [6] was over 100 µM and the TGI [7] was over 100 µM. It also gave a TGI [8] of over 100 µM and a TGI [9] of over 100 µM.
`NC1=NC2=c3ccccc3=C(c3cnccn3)C2(c2cnccn2)c2ccccc21` (stereo not given) gave a TGI [1] of over 100 µM, a TGI [3] of over 100 µM and a TGI [5] of over 100 µM. The TGI [6] was over 100 µM, the TGI [7] was over 100 µM and the TGI [8] was over 100 µM. For the same compound, the TGI [9] was over 100 µM.
With `O=C(C=C1SCCS1)/C=C\c1ccc(Cl)cc1` the TGI [1] was over 100 µM, the TGI [2] was over 100 µM and the TGI [3] was over 100 µM. The TGI [4] was over 100 µM, the TGI [6] was over 100 µM and the TGI [9] was over 100 µM.
With `CCCCCCCCOCC(O)COC(C)C` (stereo not given) the TGI [1] was 34.7 µM, the TGI [2] was over 100 µM and the TGI [3] was over 100 µM. The TGI [5] was over 100 µM, the TGI [6] was over 100 µM and the TGI [7] was over 100 µM.
